Experimental data reported in patent publication EP0908457B1, “3-(1,2-benzisothiazol- and isoxazol-5-Y1)-2,4(1H,3H)-pyrimidinedione or thione and 3-(1,2-benzisothiazol- and isoxazol-5-y1)-4(3H)-pyrimidinone or thione herbicidal agents” (BASF AKTIENGESELLSCHAFT, priority 1997, dated 1999).

How the values were obtained:
[1] = system: Oryza sativa, (L.) Tebonnet; assay: Rice tolerance to post-transplant applications under flooded paddy conditions (Example 187), ORYSAT (Rice, Tebonnet); conditions: rated three to four weeks after treatment; for herbicidal effect rating ORYSAT: meaning of each grade not given here
[2] = system: Cyperus iria; assay: Preemergence weed control under flooded paddy conditions, CYPIR (Rice Flatsedge); format: in vivo; conditions: flooded paddy, rated three to four weeks after treatment; note: meaning of each grade not given here
[3] = system: Monochoria vaginalis, Presl.; assay: Preemergence weed control under flooded paddy conditions, MOOVA (Monochoria); format: in vivo; conditions: flooded paddy, rated three to four weeks after treatment; note: meaning of each grade not given here
[4] = system: Sagittaria pygmaea, L.; assay: Preemergence weed control under flooded paddy conditions, SAGPY (Arrowhead (Pygmaea)); format: in vivo; conditions: flooded paddy, rated three to four weeks after treatment; note: meaning of each grade not given here
[5] = system: Cyperus serotinus, Rottb.; assay: Preemergence weed control under flooded paddy conditions, CYPSE (Flatsedge); format: in vivo; conditions: rated three to four weeks after treatment; note: meaning of each grade not given here
[6] = system: Echinochloa oryzoides (Ard.) Fritsch.; assay: Preemergence weed control under flooded paddy conditions, ECHORC (Watergrass (Calif.)); format: in vivo; conditions: flooded paddy, rated three to four weeks after treatment; note: meaning of each grade not given here
[7] = Rate 0.0320 kg/ha, preemergence
[8] = Rate 0.0620 kg/ha, preemergence
[9] = Rate 0.1250 kg/ha, preemergence
[10] = Rate 0.2500 kg/ha, preemergence
[11] = 0.0313 kg/ha, preemergence weeds
[12] = 0.0625 kg/ha, preemergence weeds
[13] = 0.1250 kg/ha, preemergence weeds
[14] = 0.2500 kg/ha, preemergence weeds

## CCOCN(C(=O)c1nsc2ccc(-n3c(=O)cc(C(F)(F)F)n(C)c3=O)cc12)S(C)(=O)=O [Example 370, 1,2-Benzisothiazole-3-carboxamide, 5-[3,6-dihydro-3-methyl-2,6-dioxo-4-(trifluoromethyl)-1(2H)-pyrimidinyl]-N-(ethoxymethyl)-N-(methylsulfonyl)-]
[1]; Rate 0.0320 kg/ha
  herbicidal effect rating ORYSAT: 3.0
[1]; Rate 0.0620 kg/ha
  herbicidal effect rating ORYSAT: 4.0
[1]; Rate 0.1250 kg/ha
  herbicidal effect rating ORYSAT: 4.0
[1]; Rate 0.2500 kg/ha
  herbicidal effect rating ORYSAT: 5.0
[2]; [7]
  herbicidal effect rating, CYPIR: 4.0
[2]; [8]
  herbicidal effect rating, CYPIR: 7.0
[2]; [9]
  herbicidal effect rating, CYPIR: 9.0
[2]; [10]
  herbicidal effect rating, CYPIR: 9.0
[3]; [7]
  herbicidal effect rating, MOOVA: 7.0
[3]; [8]
  herbicidal effect rating, MOOVA: 9.0
[3]; [9]
  herbicidal effect rating, MOOVA: 9.0
[3]; [10]
  herbicidal effect rating, MOOVA: 9.0
[4]; [7]
  herbicidal effect rating, SAGPY: 0.0
[4]; [8]
  herbicidal effect rating, SAGPY: 3.0
[4]; [9]
  herbicidal effect rating, SAGPY: 7.0
[4]; [10]
  herbicidal effect rating, SAGPY: 9.0
[5]; [7]
  herbicidal effect rating, CYPSE: 0.0
[5]; [8]
  herbicidal effect rating, CYPSE: 4.0
[5]; [9]
  herbicidal effect rating, CYPSE: 7.0
[5]; [10]
  herbicidal effect rating, CYPSE: 9.0
[6]; [7]
  herbicidal effect rating, ECHORC: 3.0
[6]; [8]
  herbicidal effect rating, ECHORC: 4.0
[6]; [9]
  herbicidal effect rating, ECHORC: 6.0
[6]; [10]
  herbicidal effect rating, ECHORC: 7.0

## CCOCc1nsc2ccc(-n3c(=O)cc(C(F)(F)F)n(C)c3=O)cc12 [Example 195, 3-[3-(Ethoxymethyl)-1,2-benzisothiazol-5-yl]-1-methyl-6-(trifluoromethyl)-2,4(1H,3H)-pyrimidinedione]
[1]; 0.0313 kg/ha
  herbicidal effect rating, ORYSAT (rice tolerance): 6.0
[1]; 0.0625 kg/ha
  herbicidal effect rating, ORYSAT (rice tolerance): 7.0
[1]; 0.1250 kg/ha
  herbicidal effect rating, ORYSAT (rice tolerance): 9.0
[1]; 0.2500 kg/ha
  herbicidal effect rating, ORYSAT (rice tolerance): 9.0
[2]; [11]
  herbicidal effect rating, CYPIR: 0.0
[2]; [12]
  herbicidal effect rating, CYPIR: 2.0
[2]; [13]
  herbicidal effect rating, CYPIR: 4.0
[2]; [14]
  herbicidal effect rating, CYPIR: 9.0
[3]; [11]
  herbicidal effect rating, MOOVA: 9.0
[3]; [12]
  herbicidal effect rating, MOOVA: 9.0
[3]; [13]
  herbicidal effect rating, MOOVA: 9.0
[3]; [14]
  herbicidal effect rating, MOOVA: 9.0
[4]; [11]
  herbicidal effect rating, SAGPY: 0.0
[4]; [12]
  herbicidal effect rating, SAGPY: 0.0
[4]; [13]
  herbicidal effect rating, SAGPY: 1.0
[4]; [14]
  herbicidal effect rating, SAGPY: 2.0
[5]; [11]
  herbicidal effect rating, CYPSE: 0.0
[5]; [12]
  herbicidal effect rating, CYPSE: 0.0
[5]; [13]
  herbicidal effect rating, CYPSE: 2.0
[5]; [14]
  herbicidal effect rating, CYPSE: 7.0
[6]; [11]
  herbicidal effect rating, ECHORC: 2.0
[6]; [12]
  herbicidal effect rating, ECHORC: 3.0
[6]; [13]
  herbicidal effect rating, ECHORC: 6.0
[6]; [14]
  herbicidal effect rating, ECHORC: 9.0

## Cn1c(C(F)(F)F)cc(=O)n(-c2ccc3snc(COC(=O)Cc4ccccc4)c3c2)c1=O [Example 369, 2,4(1H,3H)-Pyrimidinedione, 3-[3-(hydroxymethyl)-1,2-benzisothiazol-5-yl]-1-methyl-6-(trifluoromethyl)-, phenylacetate (ester)]
[1]; Rate 0.0320 kg/ha
  herbicidal effect rating ORYSAT: 6.0
[1]; Rate 0.0620 kg/ha
  herbicidal effect rating ORYSAT: 6.0
[1]; Rate 0.1250 kg/ha
  herbicidal effect rating ORYSAT: 7.0
[1]; Rate 0.2500 kg/ha
  herbicidal effect rating ORYSAT: 7.0
[2]; [7]
  herbicidal effect rating, CYPIR: 7.0
[2]; [8]
  herbicidal effect rating, CYPIR: 7.0
[2]; [9]
  herbicidal effect rating, CYPIR: 9.0
[2]; [10]
  herbicidal effect rating, CYPIR: 9.0
[3]; [7]
  herbicidal effect rating, MOOVA: 9.0
[3]; [8]
  herbicidal effect rating, MOOVA: 9.0
[3]; [9]
  herbicidal effect rating, MOOVA: 9.0
[3]; [10]
  herbicidal effect rating, MOOVA: 9.0
[4]; [7]
  herbicidal effect rating, SAGPY: 0.0
[4]; [8]
  herbicidal effect rating, SAGPY: 6.0
[4]; [9]
  herbicidal effect rating, SAGPY: 9.0
[4]; [10]
  herbicidal effect rating, SAGPY: 9.0
[5]; [7]
  herbicidal effect rating, CYPSE: 0.0
[5]; [8]
  herbicidal effect rating, CYPSE: 3.0
[5]; [9]
  herbicidal effect rating, CYPSE: 4.0
[5]; [10]
  herbicidal effect rating, CYPSE: 9.0
[6]; [7]
  herbicidal effect rating, ECHORC: 3.0
[6]; [8]
  herbicidal effect rating, ECHORC: 3.0
[6]; [9]
  herbicidal effect rating, ECHORC: 6.0
[6]; [10]
  herbicidal effect rating, ECHORC: 8.0
